In US5741487A, “Mutanase-containing oral compositions” (priority 1996, dated 1998):
“Also recorded” adds a separate entry of the source. Read-outs that look alike come from different tables or passages of the source.

What was measured:
Format in all cases: biochemical
[1] = tested on: Mutanase A (RM1 enzyme) from Bacillus sp. RM1 (FERM P-14836)
Experimental: (§1) To 100 μl of a 0.1M acetic acid buffer containing 3% mutan (pH 5) was added 100 μl of the mutanase solution. The mixture was incubated at 35° C. for 10 minutes with shaking at 100 strokes/min. Reaction was terminated by adding 0.4 ml of a 4,6-dinitrosalicylic acid (DNS) solution. The reaction mixture was centrifuged and 0.5 ml of the supernatant was transferred into a test tube. The tube was capped with a glass ball and kept in boiling water for 10 minutes. The tube was cooled with water for 5 minutes. Then 4 ml of distilled water was added and optical absorbance measured at 530 nm. A titer was determined using glucose as standard. The amount of enzyme which releases 1 μg of reducing sugar per minute is defined as one unit. It is noted that the enzymatic activity referred to below in conjunction with any of physicochemical properties is measured by this method.
(§2) Mutanase according to the invention was added to a 50 mM acetic acid buffer (pH 5) in an amount of 50 units/ml. Various inhibitors were individually added thereto in a final concentration of 1 mM. The solution was incubated at 35° C. for 30 minutes. The relative activity is expressed based on the assumption that the enzymatic activity of an inhibitor-free sample is 100%.

[2] = tested on: Mutanase B (RM4 enzyme) from Bacillus sp. RM4 (FERM P-14837)
Experimental: as §1, §2

[3] = tested on: Mutanase C (M7 enzyme) from Bacillus sp. M7 (FERM P-14835)
Experimental: as §1, §2

[4] = inhibitor final concentration 1 mM, 50 mM acetic acid buffer pH 5, 35° C., 30 minutes, inhibitor-free sample = 100%
[5] = mutan substrate, 1 mM inhibitor

| Structure (SMILES) | Relative activity (%) Mutanase A ([1]; pH 5) [%] | Relative activity (%) Mutanase B ([2]; pH 5) [%] | Relative activity (%) Mutanase C ([3]; pH 5) [%] | Relative activity (%) Mutanase A [1, 4] [%] | Relative activity (%) Mutanase B [2, 4] [%] | Relative activity (%) Mutanase C [3, 4] [%] | effect of inhibitors on mutanase A (in words) [1, 5] | effect of inhibitors on mutanase B (in words) [2, 5] | effect of inhibitors on mutanase C (in words) [3, 5] |
| --- | --- | --- | --- | --- | --- | --- | --- | --- | --- |
| O=C(O)CN(CCN(CC(=O)O)CC(=O)O)CC(=O)O [2Na-EDTA] | 93 | 99 | 79 |  |  |  |  |  |  |
| O=C(O)CI [Iodoacetic acid] | 100 | 99 | 87 |  |  |  |  |  |  |
| CCN1C(=O)C=CC1=O [N-ethylmaleimide] |  |  |  | 100 | 98 | 94 |  |  |  |
| O=C(O)c1cc[c]([Hg][Cl])cc1 [PCMB, p-chloromercurybenzoic acid] |  |  |  | 6 | 14 | 11 | shows inhibitory effect; also recorded: strongly inhibits | shows inhibitory effect; also recorded: strongly inhibits | shows inhibitory effect; also recorded: strongly inhibits |
